Data taken from patent US12655110B2, “Method of producing a crystalline form of sodium 2-[(4S)-8-fluoro-2-[4-(3- methoxyphenyl)piperazin-1-yl]-3-[2-methoxy-5-(trifluoromethyl)phenyl]-4H-quinazoline-4-yl]acetate trihydrate” (A1C246 AG & CO. KG, priority 2020, dated 2026).

Key:
Format in all cases: physicochemical
[1] = Thermogravimetric analysis (TGA), decomposition; conditions: heated under nitrogen at 10° C./min from 30° C. to 300° C.
Protocol: Thermogravimetric analysis (TGA): Thermogravimetric analyses were recorded in a Mettler Toledo TGA/SDTA851 with a balance MT1 type. Approximately 3-4 mg of sample were weighed (using a MX5 Mettler Toledo microbalance) into 40 μL aluminium crucibles with a pinhole lid and heated under nitrogen (10 mL/min) at 10° C./min from 30° C. to 300° C. Programs used: Data collection and evaluation with software STARe.

[2] = Hygroscopicity (DVS); conditions: for PXRD after DVS experiment (solid form): after hygroscopicity (DVS) experiment
[3] = Solid form stability in a drying process; conditions: drying process (>60° C.)

Row | Structure (SMILES) | TGA: decomposition occurs at [1] | Hygroscopicity (DVS): water adsorption ([2]; 10-80% RH) | Hygroscopicity (DVS): water adsorption ([2]; 10-90% RH) | PXRD after DVS experiment (solid form) [2] | Solid form change in a drying process [3]
1 | COc1cccc(N2CCN(C3=Nc4c(F)cccc4[C@H](CC(=O)O)N3c3cc(C(F)(F)F)ccc3OC)CC2)c1 [Trihydrate, sodium 2-[(4S)-8-fluoro-2-[4-(3-methoxyphenyl)piperazin-1-yl]-3-[2-methoxy-5-(trifluoromethyl)phenyl]-4H-quinazolin-4-yl]acetate trihydrate] | Decomposition occurs at ca. 250 °C | 4.1% water adsorption (10-80% RH) | 8.6% water adsorption (10-90% RH) | No PXRD changes after experiment | The solid turns into the amorphous
2 | CCO.COc1cccc(N2CCN(C3=Nc4c(F)cccc4[C@H](CC(=O)[O-])N3c3cc(C(F)(F)F)ccc3OC)CC2)c1.O.[Na+] [Ethanol/Water Solvate, sodium 2-[(4S)-8-fluoro-2-[4-(3-methoxyphenyl)piperazin-1-yl]-3-[2-methoxy-5-(trifluoromethyl)phenyl]-4H-quinazolin-4-yl]acetate ethanol monohydrate] | Decomposition occurs at ca. 250 °C | 5.3% water adsorption (10-80% RH) | 3.2% water adsorption (10-90% RH) | PXRD after experiment: trihydrate | The solid turns into the amorphous
